The text below walks through data of ChEMBL document CHEMBL3414446, “Neoechinulin B and its analogues as potential entry inhibitors of influenza viruses, targeting viral hemagglutinin” (Eur J Med Chem, 2015).

For assay [1], the system named is Influenza A virus. The assay can be described thus: Antiviral activity against OSV-resistant influenza A virus A/LiaoNing-ZhenXing/1109/2010 (H1N1) strain. It is filed as functional, organism-based.
Assay [2] deals with Influenza A virus. Kind of assay: Antiviral activity against amantadine and ribavirin-resistant influenza A virus A/HuNan-huHui/1222/2010 (H3N2) strain. It is filed as functional, organism-based.

One may read the IC50 as the midpoint of a concentration-inhibition curve. A high value points to weaker potency in that assay. For the compound `CCOC(=O)C1=C[C@@H](OC(CC)CC)[C@H](NC(C)=O)[C@@H](N)C1` [OSELTAMIVIR], the IC50 with Influenza A virus [1] is more than 200 µM; in the assay with Influenza A virus [2] it was more than 20.5 µM.
For `C=CC(C)(C)c1[nH]c2ccccc2c1/C=c1\[nH]c(=O)c(=C)[nH]c1=O` [NEOECHINULIN B] the same measures were 16.9 µM and 22.2 µM.
As for `NC12CC3CC(CC(C3)C1)C2` [AMANTADINE], the IC50 with Influenza A virus [1] was 0.82 µM; in the assay on Influenza A virus [2], more than 200 µM.
In the case of `NC(=O)c1ncn([C@@H]2O[C@H](CO)[C@@H](O)[C@H]2O)n1` [RIBAVIRIN], the IC50 with Influenza A virus [1] is 1.05 µM; with Influenza A virus [2], more than 150 µM.
